The values below are quoted from earlier work in patent US12208399B2, “Electrochemical separation and recovery of metals” (YALE UNIVERSITY, priority 2017, dated 2025).

≈ marks a conversion by molar mass, not a printed value.

Take `O=C1C(Cl)=CC(=Nc2ccc(O)cc2)C=C1Cl` [DCIP, 2,6-dichloroindophenol]: the Solubility in water is 10 mg/mL (≈ 37.3 mM).
On to `Cc1cc2nc3c(=O)[nH]c(=O)nc-3n(C[C@@H](O)[C@@H](O)[C@@H](O)COP(=O)(O)O)c2cc1C` [RMP, riboflavin 5′-monophosphate], for which the Solubility in water is 100 mg/mL (≈ 219 mM).
